From patent US8354398B2, “Substituted isoxazole compounds” (Bristol-Myers Squibb Company, priority 2009, dated 2013)
Counter-ions that a name gives are not always drawn.

Columns and labels:
S1P1 [1] = biological target: T1, S1P1 (Homo sapiens, UniProt P21453); test: S1P1 Binding Assay (33P-S1P ligand competition, membranes from CHO cells); parameters: expressed in transfected cells; host or cells: CHO cells; details: membranes of CHO cells expressing human S1P1; 0.03 nM 33P-S1P; 60 min room temperature
Description: Membranes were prepared from CHO cells expressing human S1P1. Cells were dissociated in buffer containing 20 mM HEPES, pH 7.5, 50 mM NaCl, 2 mM EDTA and Protease Inhibitor cocktail (Roche), and disrupted on ice using the Polytron homogenizer. The homogenate was centrifuged at 20,000 rpm (48,000 g) and the supernatant was discarded. The membrane pellets were resuspended in buffer containing 50 mM HEPES, pH 7.5, 100 mM NaCl, 1 mM MgCl2, 2 mM EDTA and stored in aliquots at −80° C. after protein concentration determination.
Membranes (2 μg/well) and 0.03 nM final concentration of ^33P-S1P ligand (1 mCi/ml, American Radiolabeled Chemicals) were added to the compound plates. Binding was performed for 60 min at room temperature, terminated by collecting the membranes onto GF/B filter plates, and radioactivity was measured by TOPCOUNT®. The competition data of the test compounds over a range of concentrations was plotted as percentage inhibition of radioligand specific binding. The IC50 is defined as the concentration of competing ligand needed to reduce specific binding by 50%.
Compounds of the present invention and Comparative Compound A were tested in the S1P1 binding assay described hereinabove and the results rounded to two digits, shown in Table A were obtained. In some instances, the value is an average of multiple experiments where N is the number of experiments conducted that provided satisfactory dose response curves. When more than one batch of an example was tested, the value presented is from the batch which allowed a comparison of GTPγS S1P1 and GTPγS S1P3 in Method A (Data shown in Table B). Data was not averaged across different batches of an example compound.

S1P3 [2] = biological target: T2, S1P3 (Homo sapiens, UniProt Q99500); test: Method B: Receptor [35S] GTPγS SPA Binding Assay, membranes from S1P3 transfected CHO cells; assay type: biochemical; parameters: expressed in transfected cells; host or cells: CHO cells; details: S1P3 transfected CHO cell membranes, NC = a satisfactory dose response curve was not obtained
Description: (§1) Membranes prepared from S1P1 or S1P3 transfected CHO cells (2 μg protein) were incubated in 96-well white plates (CORNING® 3693) with test compounds diluted in DMSO, in 50 μl of reaction mixture containing 7.5 μl WGA-PVT beads (20 mg/ml), and 5 μM GDP, 20 mM HEPES pH 7.4, 100 mM NaCl, 1 mM EDTA, 5 mM MgCl2, 10 μg/ml saponin, 0.1% BSA, and 1 μM leupeptin. The assay was initiated with the addition of 25 μl of 0.2 nM [^35S]-GTPγS (1250 Ci/mmol; NEN) in assay buffer. After 90 min incubation at room temperature, spin the plate at 1000 rpm for 5 min. The bound radionuclides were measured at TOPCOUNT®, expressed as % response relative to S1P (1 μM) activation. Data was analyzed using the four parameter logistic equation in Excel. The four parameters in the equation, Y=A+((B−A)/(1+((EC50/X)^D))), are described as following: A is the Y value (agonist activity) at the bottom plateau; B is the Y value at the top plateau; EC50 is the X value (agonist concentration) when the response is halfway between bottom and top; D is Hill coefficient. Curves were not generated for compounds having Ymax values were below 50%.
(§2) Compounds of the present invention and Comparative Compound A were tested in the Receptor [^35S] GTPγS Binding Assays (Method A) and Receptor [35S] In some instances, the value is an average of multiple experiments where N is the number of experiments conducted that provided satisfactory dose response curves. When more than one batch of an example was tested, the value presented is from a batch which allowed a comparison of GTPγS S1P1 and GTPγS S1P3 in which the most number of experiments were performed. Preferably, the same batch was examined in Method A and Method B. Data was not averaged across different batches of an example compound.
Target sequence in this assay (Q99500 whole entry, species assumed): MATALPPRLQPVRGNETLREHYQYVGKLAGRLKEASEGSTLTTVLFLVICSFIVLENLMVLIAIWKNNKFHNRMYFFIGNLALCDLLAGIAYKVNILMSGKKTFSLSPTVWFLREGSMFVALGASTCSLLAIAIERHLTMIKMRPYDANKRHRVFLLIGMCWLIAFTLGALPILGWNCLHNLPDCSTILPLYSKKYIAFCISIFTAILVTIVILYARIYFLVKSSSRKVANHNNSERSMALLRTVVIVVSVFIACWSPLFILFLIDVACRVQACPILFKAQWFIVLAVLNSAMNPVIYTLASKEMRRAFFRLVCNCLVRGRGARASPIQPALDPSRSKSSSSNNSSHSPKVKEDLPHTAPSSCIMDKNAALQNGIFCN

S1P1 [3] = biological target: T1, S1P1; test: Method A: Receptor [35S] GTPγS Binding Assay, membranes from S1P1/CHO cells; assay type: biochemical; parameters: expressed in transfected cells; host or cells: S1P1/CHO cells; details: for EC50: Method A, S1P1/CHO cell membranes; for GTPγS S1P3/S1P1 (Method A): ratio of GTPγS S1P3 EC50 to GTPγS S1P1 EC50, Method A
Description: (§3) Compounds were loaded in a 384 Falcon v-bottom plate (0.5 μl/well in a 3-fold dilution). Membranes prepared from S1P1/CHO cells or EDG3-Ga15-bla HEK293T cells were added to the compound plate (40 μl/well, final protein […]) with MULTIDROP®. [^35S]GTP (1250 Ci/mmol, Perkin Elmer) was diluted in assay buffer: 20 mM HEPES, pH7.5, 10 mM MgCl2, 150 mM NaCl, 1 mM EGTA, 1 mM DTT, 10 μM GDP, 0.1% fatty acid free BSA, and 10 mg/ml Saponin to 0.4 nM. 40 μl of the [^35S] GTP solution was added to the compound plate with a final concentration of 0.2 nM. The reaction was kept at room temperature for 45 min. At the end of incubation, all the mixtures in the compound plate were transferred to a 384 well FB filter plates via GPCR robot system. The filter plate was washed with water 4 times by using the modified manifold Embla plate washer and dried at 60° C. for 45 min. 30 μl of MicroScint 20 scintillation fluid was added to each well for counting at Packard TOPCOUNT®. EC50 is defined as the agonist concentration that corresponds to 50% of the Ymax (maximal response) obtained for each individual compound tested.
as §2

S1P1 [4] = biological target: T1, S1P1; test: Method B: Receptor [35S] GTPγS SPA Binding Assay, membranes from S1P1 transfected CHO cells; assay type: biochemical; parameters: expressed in transfected cells; host or cells: S1P1/CHO cells; details: for EC50: Method B SPA, S1P1 transfected CHO cell membranes, NC = a satisfactory dose response curve was not obtained; for GTPγS S1P3/S1P1 (Method B): ratio of GTPγS S1P3 EC50 to GTPγS S1P1 EC50, Method B
Description: as §1, §2

S1P3 [5] = biological target: T2, S1P3; test: Method A: Receptor [35S] GTPγS Binding Assay, membranes from EDG3-Ga15-bla HEK293T cells; assay type: biochemical; parameters: expressed in transfected cells; host or cells: EDG3-Ga15-bla HEK293T cells; details: EDG3-Ga15-bla HEK293T cell membranes
Description: as §3, §2
Target sequence in this assay (Q99500 whole entry): as the sequence (Q99500 whole entry, species assumed) above

T1 sequence (P21453 whole entry): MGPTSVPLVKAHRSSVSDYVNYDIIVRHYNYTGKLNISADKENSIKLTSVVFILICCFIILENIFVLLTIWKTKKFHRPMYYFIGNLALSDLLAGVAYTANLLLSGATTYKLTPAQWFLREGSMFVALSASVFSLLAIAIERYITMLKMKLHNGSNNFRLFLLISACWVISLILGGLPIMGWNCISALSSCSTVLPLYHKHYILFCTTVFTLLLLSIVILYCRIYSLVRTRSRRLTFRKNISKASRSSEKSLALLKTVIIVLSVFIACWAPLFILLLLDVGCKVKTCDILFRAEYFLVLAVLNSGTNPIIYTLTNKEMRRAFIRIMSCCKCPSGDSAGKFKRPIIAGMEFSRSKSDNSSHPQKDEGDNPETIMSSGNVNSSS

SMILES	IC50 (S1P1 [1]) [nM]	EC50 (S1P3 [2]) [nM]	EC50 (S1P1 [3]) [nM]	GTPγS S1P3/S1P1 (Method A) (S1P1 [3])	EC50 (S1P1 [4]) [nM]	GTPγS S1P3/S1P1 (Method B) (S1P1 [4])	EC50 (S1P3 [5]) [nM]
O=C(O)C1CN(Cc2ccc(-c3noc(-c4cc(-c5ccccc5)c(C(F)(F)F)s4)n3)cc2)C1 [Comp. A, 1-(4-(5-(4-Phenyl-5-(trifluoromethyl)thiophen-2-yl)-1,2,4-oxadiazol-3-yl)benzyl)azetidine-3-carboxylic acid, reference compound]	2.5	20	84	1.2	0.25	78	97
CC(C)(C)c1c(-c2nc(-c3ccc(CN4CC(C(=O)O)C4)cc3)no2)noc1-c1ccccc1 [Example 7, 1-(4-(5-(4-tert-Butyl-5-phenylisoxazol-3-yl)-1,2,4-oxadiazol-3-yl)benzyl)-azetidine-3-carboxylic acid, 2-2-2-trifluoroacetic acid salt]	0.58	8100	6.6	560	1.5	5,400	3700
CC(F)(F)c1c(-c2nc(-c3ccc(CN4CC(C(=O)O)C4)cc3)no2)noc1-c1ccccc1 [Example 9, 1-(4-(5-(4-(1,1-Difluoroethyl)-5-phenylisoxazol-3-yl)-1,2,4-oxadiazol-3-yl)benzyl)azetidine-3-carboxylic acid, 2,2,2-trifluoroacetic acid salt]	0.14	910	3.1	810	0.14	6,500	2500
CCC(F)(F)c1c(-c2nc(-c3ccc(CN4CC(C(=O)O)C4)cc3)no2)noc1-c1ccccc1 [Example 10, 1-(4-(5-(4-(1,1-Difluoropropyl)-5-phenylisoxazol-3-yl)-1,2,4-oxadiazol-3-yl)benzyl)azetidine-3-carboxylic acid, trifluoroacetic acid salt]	0.055		0.84	230	0.055		190
CCCc1c(-c2ccccc2)noc1-c1nc(-c2ccc(CN3CC(C(=O)O)C3)cc2)no1 [Example 11, 1-(4-(5-(3-Phenyl-4-propylisoxazol-5-yl)-1,2,4-oxadiazol-3-yl)benzyl)azetidine-3-carboxylic acid, 2,2,2-trifluoroacetic acid salt]	0.13	50	0.47		0.017	2,900	
O=C(O)C1CN(Cc2ccc(-c3noc(-c4onc(-c5ccccc5)c4C(F)F)n3)cc2)C1 [Example 12, 1-(4-(5-(4-(Difluoromethyl)-3-phenylisoxazol-5-yl)-1,2,4-oxadiazol-3-yl)benzyl)azetidine-3-carboxylic acid, 2,2,2-trifluoroacetic acid salt]	0.078	1600			0.15	11,000	3600

Results, then the compound that gave them:

IC50 (S1P1 [1]) [nM]	EC50 (S1P3 [2]) [nM]	EC50 (S1P1 [3]) [nM]	GTPγS S1P3/S1P1 (Method A) (S1P1 [3])	EC50 (S1P1 [4]) [nM]	GTPγS S1P3/S1P1 (Method B) (S1P1 [4])	EC50 (S1P3 [5]) [nM]	SMILES
0.7		150	35	1.2		5200	CNC(=O)c1c(-c2ccccc2)noc1-c1nc(-c2ccc(CN3CC(C(=O)O)C3)cc2)no1 [Example 14, 1-(4-(5-(4-(Methylcarbamoyl)-3-phenylisoxazol-5-yl)-1,2,4-oxadiazol-3-yl)benzyl)azetidine-3-carboxylic acid, 2,2,2-trifluoroacetic acid salt]
0.063	13.5	0.73	27	0.12	112	20	O=C(O)C1CN(Cc2ccc(-c3noc(-c4noc(-c5ccccc5)c4-c4ccccc4)n3)cc2)C1 [Example 17, 1-(4-(5-(4,5-diphenylisoxazol-3-yl)-1,2,4-oxadiazol-3-yl)benzyl)azetidine-3-carboxylic acid, 2,2,2-trifluoroacetic acid salt]
0.14	21	1		0.015	1,400		CCCc1c(-c2nc(-c3ccc(CN4CC(C(=O)O)C4)cc3)no2)noc1CC(C)C [Example 18, 1-(4-(5-(5-Isobutyl-4-propylisoxazol-3-yl)-1,2,4-oxadiazol-3-yl)benzyl)azetidine-3-carboxylic acid, TFA]
0.3		3	270	0.72		810	CCCc1onc(-c2nc(-c3ccc(CN4CC(C(=O)O)C4)cc3)no2)c1CC(C)C [Example 19, 1-(4-(5-(4-Isobutyl-5-propylisoxazol-3-yl)-1,2,4-oxadiazol-3-yl)benzyl)azetidine-3-carboxylic acid, TFA]
